Experimental data from patent publication US20160000883A1, “COMBINATION OF ACYLATED GLUCAGON ANALOGUES WITH INSULIN ANALOGUES” (ZEALAND PHARMA A/S, priority 2011, published 2016).
Numbered stars: 1 amine (or outer) side, 2 acyl side, 3 side chain; on linkers, the order of the positions; unused ones are H or OH. Square brackets hold non-standard residues; d marks the D form. Side chains are listed from the residue outwards. * marks the point of attachment. γGlu = O=C(O)[C@H](CCC(=O)[*:2])N[*:1]; Palmitoyl = CCCCCCCCCCCCCCCC(=O)*; Aib = CC(C)(N)C(=O)O

How the values were obtained:
[1] = system: db/db (BKS.Cg-m+/+Lepr^db/J) female mice; assay: 21-day s.c. treatment of db/db mice: body weight, food and water intake; type: in vivo; conditions: 21 days, bi-daily s.c., Lantus 3 U, Levemir 6 U, Compound X 10 nmol/kg, vs. vehicle (FIG. 1)
From the text: Eighty (80) db/db (BKS.Cg-m+/+Lepr^db/J) female mice aged 7 weeks were obtained from Charles River, US. The mice were acclimatized in their new environment and allowed free access to normal chow (Altromin 1324, Brogaarden A/S, Gentofte, Denmark) and domestic quality tap water added citric acid to pH ˜3.6, except as indicated. The mice were group-housed with 3-4 mice per cage in a light-, temperature-, and humidity-controlled room (12-hour light: 12-hour dark cycle, with lights on at 06.00 AM to 06.00 PM hour; 24° C.; 50% relative humidity).
Prior to treatment, in weeks 1-3, a tail-blood sample for the determination of blood glucose was obtained on non-fasted animals to determine diabetic state and to identify outliers, which were excluded. The inclusion criteria of BG>16 mM glucose was applied.
Stratification of the animals was based on HbA1c levels (primary) and BW as measured at baseline (day −4). Thus, on day −3, the 66 mice were selected based on the pre-screen and baseline measurements into 6 study groups of 11 mice (3-4 mice/cage).
(§1) All mice were mock treated for at 3 days (BID, SC, 100 μl vehicle) to acclimatize the animals to handling and injections. Dosing (day 0, mice at age 12 weeks as in pilot study) started in the afternoon on that day, and the mice were treated twice daily with 2 SC injections according to Table 1 for a total of 21 days (4 injections per day). Thus, last day of dosing was day 21 in the morning. The daily injections took place between 7:00 and 8:00 and between 14:00 and 15:00 with fresh solutions prepared in the morning (only Compound X). […]
Dosing solutions of Compound X for the weekend were prepared the Friday before. […] Throughout the study (day −2 to day 21) body weights (8W) were recorded daily and used to administer the body weight-corrected doses of substances. Food and water intake (FI, WI) was measured every day (day −3 to day 21) as cage averages.
In Vivo: female db/db mice aged 10-11 weeks were treated for 21 days with bi-daily s.c. injections. […] Fasting blood glucose (BG) was measured before and after 21 days of treatment.

[2] = system: db/db (BKS.Cg-m+/+Lepr^db/J) female mice; assay: 21-day s.c. treatment of db/db mice: fasting blood glucose (delta-BG); type: in vivo; conditions: fasted female db/db mice, over 21 days of bi-daily s.c. treatment; Lantus 3 U, Levemir 6 U, Compound X 10 nmol/kg; average +/- SEM (FIG. 4)
Procedure: as §1, with “X). Insulin was kept in the refrigerator.” for “X).”
On day 21 (before termination) in 8 h fasted mice a blood sample (350 μl) was taken, and BG, HbA1c, and p-insulin were measured as described above. […]
The whole blood glucose level was analyzed on tail-blood samples by the immobilized glucose oxidase method (Elite Auto analyser, Bayer, Denmark) following the manufacturer's protocol. Blood samples (sample size 30 μl) were analyzed for HbA1c using the Cobas c111 analyzer (Roche Diagnostics, Mannheim, Germany) in single determinations by Department of Molecular Pharmacology. Plasma (sample size 5 μl) and insulin content was measured using an insulin alpha-LISA assay in triplicate by Department of Molecular Pharmacology. A measure of peptide exposure in plasma (sample size 100 μl) will be determined by the Department of Bioanalysis and Pharmacokinetics. […]

Substance	body weight (BW) change [1]	delta-BG (delta-Blood Glucose) [2] [mM]
H-H-Aib-QGTFTSDYSKYLDS-K(Hexadecanoyl-isoGlu)-AAHDFVEWLLSA-NH2 (H-H[Aib]QGTFTSDYSKYLDSK([γGlu-Palmitoyl])AAHDFVEWLLSA-NH2; SMILES CCCCCCCCCCCCCCCC(=O)N[C@@H](CCC(=O)NCCCC[C@H](NC(=O)[C@H](CO)NC(=O)[C@H](CC(=O)O)NC(=O)[C@H](CC(C)C)NC(=O)[C@H](Cc1ccc(O)cc1)NC(=O)[C@H](CCCCN)NC(=O)[C@H](CO)NC(=O)[C@H](Cc1ccc(O)cc1)NC(=O)[C@H](CC(=O)O)NC(=O)[C@H](CO)NC(=O)[C@@H](NC(=O)[C@H](Cc1ccccc1)NC(=O)[C@@H](NC(=O)CNC(=O)[C@H](CCC(N)=O)NC(=O)C(C)(C)NC(=O)[C@@H](N)Cc1c[nH]cn1)[C@@H](C)O)[C@@H](C)O)C(=O)N[C@@H](C)C(=O)N[C@@H](C)C(=O)N[C@@H](Cc1c[nH]cn1)C(=O)N[C@@H](CC(=O)O)C(=O)N[C@@H](Cc1ccccc1)C(=O)N[C@H](C(=O)N[C@@H](CCC(=O)O)C(=O)N[C@@H](Cc1c[nH]c2ccccc12)C(=O)N[C@@H](CC(C)C)C(=O)N[C@@H](CC(C)C)C(=O)N[C@@H](CO)C(=O)N[C@@H](C)C(N)=O)C(C)C)C(=O)O) [Compound X, acylated glucagon analogue, glucagon-GLP-1 dual agonist]	significant decrease	–
Insulin detemir [Levemir]	significant increase	-2.1 ± 1.6
Insulin glargine [Lantus]	significant increase	-9.6 ± 1.9
